Test results published in ChEMBL document CHEMBL3396995, “Synthesis and biological evaluation of novel pyrrolidine acid analogs as potent dual PPARα/γ agonists” (Bioorg Med Chem Lett, 2015).

Experiments:
[1] = target: T1, Peroxisome proliferator-activated receptor gamma (Homo sapiens, UniProt P37231); experiment: Agonist activity at GAL4 tagged human PPARgamma ligand binding domain expressed in HEK293 cells by luciferase reporter gene assay; type: cell-based
T1 sequence (P37231 whole entry): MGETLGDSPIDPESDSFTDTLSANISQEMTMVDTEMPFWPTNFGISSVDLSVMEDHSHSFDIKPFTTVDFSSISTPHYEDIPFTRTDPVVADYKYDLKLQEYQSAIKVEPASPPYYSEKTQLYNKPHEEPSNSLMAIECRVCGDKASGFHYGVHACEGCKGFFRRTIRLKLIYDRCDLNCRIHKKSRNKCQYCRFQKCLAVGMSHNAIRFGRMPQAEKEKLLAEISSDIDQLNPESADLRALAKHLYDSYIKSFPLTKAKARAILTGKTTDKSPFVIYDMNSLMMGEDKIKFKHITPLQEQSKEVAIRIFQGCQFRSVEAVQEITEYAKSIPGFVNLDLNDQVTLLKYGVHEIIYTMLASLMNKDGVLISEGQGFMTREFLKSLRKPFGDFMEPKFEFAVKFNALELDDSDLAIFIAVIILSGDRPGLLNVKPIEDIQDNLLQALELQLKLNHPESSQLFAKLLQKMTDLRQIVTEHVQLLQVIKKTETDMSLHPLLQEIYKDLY

[2] = target: T2, Peroxisome proliferator-activated receptor alpha (Homo sapiens, UniProt Q07869); experiment: Binding affinity to PPARalpha (unknown origin) using fluorescein-tagged dual PPARalpha/gamma activator by homogeneous fluorescence polarization binding assay
T2 sequence (Q07869 whole entry): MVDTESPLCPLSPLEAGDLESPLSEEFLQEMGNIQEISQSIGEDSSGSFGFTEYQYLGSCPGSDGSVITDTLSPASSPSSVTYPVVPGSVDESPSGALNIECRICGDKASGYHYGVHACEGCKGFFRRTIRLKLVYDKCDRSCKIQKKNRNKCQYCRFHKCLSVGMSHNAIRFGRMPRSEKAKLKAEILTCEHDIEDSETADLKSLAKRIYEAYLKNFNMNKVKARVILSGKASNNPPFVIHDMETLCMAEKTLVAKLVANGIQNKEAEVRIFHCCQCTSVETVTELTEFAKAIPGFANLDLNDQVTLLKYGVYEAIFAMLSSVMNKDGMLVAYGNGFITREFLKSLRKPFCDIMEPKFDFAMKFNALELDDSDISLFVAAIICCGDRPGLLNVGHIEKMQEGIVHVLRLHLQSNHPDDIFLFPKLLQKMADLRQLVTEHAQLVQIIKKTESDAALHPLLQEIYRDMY

[3] = target: T2, Peroxisome proliferator-activated receptor alpha; experiment: Agonist activity at GAL4 tagged human PPARalpha ligand binding domain expressed in HEK293 cells by luciferase reporter gene assay; type: cell-based; conditions: read-out: EC50
Mus musculus [4] = experiment: Antidiabetic activity in db/db mouse assessed as reduction in fasting glucose level at 10 mg/kg, po dosed once daily for 14 days; type: functional; conditions: 336 h
Mus musculus [5] = experiment: Lipid lowering activity in db/db mouse assessed as reduction in fasting triglyceride level at 10 mg/kg, po dosed once daily for 14 days; type: functional; conditions: 336 h
Cytochrome P450 2C9 = Cytochrome P450 2C9 (Homo sapiens, UniProt P11712); experiment: Inhibition of CYP2C9 (unknown origin); type: ADME
Cytochrome P450 2C19 = Cytochrome P450 2C19 (Homo sapiens, UniProt P33261); experiment: Inhibition of CYP2C19 (unknown origin); type: ADME
[6] = Oral bioavailability in rat at 10 mg/kg; type: ADME, organism-based; conditions: in vivo
Rattus norvegicus = experiment: Volume of distribution at steady state in rat at 10 mg/kg, po; type: ADME, organism-based; design: dose 10 mg/kg, route oral; conditions: in vivo
[7] = Half life in rat at 10 mg/kg, po; type: ADME, organism-based; design: dose 10 mg/kg, route oral; conditions: in vivo
[8] = target: T1, Peroxisome proliferator-activated receptor gamma
Description: (§1) Binding affinity to PPARgamma (unknown origin) using fluorescein-tagged dual PPARalpha/gamma activator by homogeneous fluorescence polarization binding assay

[9] = target: T1, Peroxisome proliferator-activated receptor gamma; remark: listed apart in the source
Description: as §1

Cytochrome P450 2C19, sequence (P33261 whole entry): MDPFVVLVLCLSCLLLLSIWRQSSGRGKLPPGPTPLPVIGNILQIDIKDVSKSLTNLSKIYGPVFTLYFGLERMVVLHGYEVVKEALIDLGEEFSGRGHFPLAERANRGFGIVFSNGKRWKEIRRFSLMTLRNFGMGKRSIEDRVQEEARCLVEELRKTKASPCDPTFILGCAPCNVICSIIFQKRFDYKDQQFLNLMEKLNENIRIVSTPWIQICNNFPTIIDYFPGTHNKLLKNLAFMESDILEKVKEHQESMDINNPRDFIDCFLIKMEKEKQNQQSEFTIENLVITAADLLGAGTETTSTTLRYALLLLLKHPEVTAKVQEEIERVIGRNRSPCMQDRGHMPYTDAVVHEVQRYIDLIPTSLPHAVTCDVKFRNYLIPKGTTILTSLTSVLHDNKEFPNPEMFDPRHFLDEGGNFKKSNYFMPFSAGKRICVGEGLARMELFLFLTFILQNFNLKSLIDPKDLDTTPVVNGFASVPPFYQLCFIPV
Cytochrome P450 2C9, sequence (P11712 whole entry): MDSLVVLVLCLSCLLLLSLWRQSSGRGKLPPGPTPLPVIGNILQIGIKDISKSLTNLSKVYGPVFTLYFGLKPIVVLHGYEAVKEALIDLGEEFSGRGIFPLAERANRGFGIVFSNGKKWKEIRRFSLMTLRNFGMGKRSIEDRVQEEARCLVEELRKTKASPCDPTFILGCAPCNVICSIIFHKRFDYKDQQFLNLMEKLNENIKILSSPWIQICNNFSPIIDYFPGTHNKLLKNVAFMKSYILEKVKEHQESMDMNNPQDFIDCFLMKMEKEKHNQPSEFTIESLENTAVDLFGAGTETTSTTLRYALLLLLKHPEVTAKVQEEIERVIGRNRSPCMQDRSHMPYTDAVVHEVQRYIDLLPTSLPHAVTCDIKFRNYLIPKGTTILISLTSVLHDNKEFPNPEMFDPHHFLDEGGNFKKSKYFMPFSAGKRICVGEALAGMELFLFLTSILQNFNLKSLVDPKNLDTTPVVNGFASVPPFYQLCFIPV

SMILES	EC50 [1] [nM]	IC50 [2] [nM]	EC50 [3] [nM]	inhibition in vivo at 10 mg/kg (Mus musculus [4]) [%]	inhibition in vivo at 10 mg/kg (Mus musculus [5]) [%]	IC50 (Cytochrome P450 2C9) [nM]	IC50 (Cytochrome P450 2C19) [nM]	bioavailability [6] [%]	Vdss (Rattus norvegicus) [L/kg]	half-life [7] [h]	IC50 [8] [nM]	IC50 [9] [nM]
Cc1oc(-c2ccccc2)nc1CCOc1ccc(C[C@@H]2CN(c3nccc(C(F)(F)F)n3)C[C@@H]2C(=O)O)cc1	30	960	90	37	48	3200	8800	65	0.47	1.54	20	–
Cc1oc(-c2ccccc2)nc1CCOc1ccc(C[C@@H]2CN(C(=O)Oc3ccccc3)C[C@@H]2C(=O)O)cc1	30	180	5	30	12	–	–	–	–	–	80	–
Cc1oc(-c2ccccc2)nc1CCOc1ccc(C[C@@H]2CN(C(=O)Oc3ccccc3)C[C@@H]2C(=O)O)cc1 (racemic)	640	610	1	–	–	–	–	–	–	–	–	80
CCOC(=O)N1C[C@@H](CCc2ccc(OCCc3nc(-c4ccccc4)oc3C)cc2)[C@@H](C(=O)O)C1 (racemic)	540	3270	20	–	–	–	–	–	–	–	690	–
Cc1oc(-c2ccccc2)nc1CCOc1ccc(CC[C@@H]2CN(C(=O)Oc3ccccc3)C[C@@H]2C(=O)O)cc1 (racemic)	160	480	10	–	–	–	–	–	–	–	90	–
CCOC(=O)N1C[C@H](CCc2ccc(OCCc3nc(-c4ccccc4)oc3C)cc2)[C@@H](C(=O)O)C1 (racemic)	> 10000	1810	10	–	–	–	–	–	–	–	1590	–
Cc1oc(-c2ccccc2)nc1CCOc1ccc(CC[C@H]2CN(C(=O)Oc3ccccc3)C[C@@H]2C(=O)O)cc1 (racemic)	> 10000	3250	980	–	–	–	–	–	–	–	340	–
Cc1oc(-c2ccccc2)nc1CCOc1cccc(C[C@H]2CN(C(=O)Oc3ccccc3)C[C@@H]2CC(=O)O)c1 (racemic)	> 10000	3090	850	–	–	–	–	–	–	–	210	–
